According to patent US12479831B2, “Substituted N(-methyl-D3)pyridazine-3-carboxamide or M-(methyl-D3)-nicotinamide compounds as IL-12, IL-23 and/or IFNα modulators” (BRISTOL-MYERS SQUIBB COMPANY, priority 2020, dated 2025):

Test system: IFNα-Induced STAT Phosphorylation in Human Whole Blood
Test: IFNα-Induced STAT Phosphorylation in Human Whole Blood
Type: cell-based
Details: 1 h incubation with compound, 1000 U/mL recombinant human IFNα A/D for 15 min, pSTAT5 (pY694) median fluorescence intensity in CD3 positive population, read-out: hWB IC50

SMILES	IC50
[2H]C([2H])([2H])NC(=O)c1nnc(Nc2cc(C(C)(C)O)ccn2)cc1Nc1cc(F)cc(-c2ncccn2)c1OC [Example 105, 4-((5-fluoro-2-methoxy-3-(pyrimidin-2-yl)phenyl)amino)-6-((4-(2-hydroxypropan-2-yl)pyridin-2-yl)amino)-N-(methyl-d3)pyridazine-3-carboxamide]	172 nM
[2H]C([2H])([2H])NC(=O)c1nnc(Nc2cc3n(n2)CCN(C2CC2)C3=O)cc1Nc1cccc(-c2ncc(F)cn2)c1OC [Example 109, 6-((5-cyclopropyl-4-oxo-4,5,6,7-tetrahydropyrazolo[1,5-a]pyrazin-2-yl)amino)-4-((3-(5-fluoropyrimidin-2-yl)-2-methoxyphenyl)amino)-N-(methyl-d3)pyridazine-3-carboxamide]	262 nM
[2H]C([2H])([2H])NC(=O)c1nnc(NC(=O)C2CC2)cc1Nc1cccc(-c2ccc(S(C)(=O)=O)cn2)c1OC [Example 110]	480 nM
[2H]C([2H])([2H])NC(=O)c1nnc(NC(=O)C2CC2)cc1Nc1cccc(-c2ncc(S(C)(=O)=O)cn2)c1OC [Example 111]	216 nM
[2H]C([2H])([2H])NC(=O)c1nnc(NC(=O)C2CC2)cc1Nc1cccc(-c2ncc(F)cc2C#N)c1OC [Example 114]	242 nM
[2H]C([2H])([2H])NC(=O)c1cnc(NC(=O)C2CC2)cc1Nc1cccc(-c2ncc(F)cc2C#N)c1OC [Example 115]	682 nM

These reach a lower IC50. Values come first.

IC50	SMILES
151 nM	[2H]C([2H])([2H])NC(=O)c1nnc(Nc2cc(=O)n(C)cn2)cc1Nc1cccc(-c2ncc(F)cn2)c1OC [Example 106, 4-((3-(5-fluoropyrimidin-2-yl)-2-methoxyphenyl)amino)-N-(methyl-d3)-6-((1-methyl-6-oxo-1,6-dihydropyrimidin-4-yl)amino)pyridazine-3-carboxamide]
137 nM	[2H]C([2H])([2H])NC(=O)c1nnc(Nc2cc3n(n2)CCN(C)C3=O)cc1Nc1cccc(-c2ncccn2)c1OC [Example 108, 4-((2-Methoxy-3-(pyrimidin-2-yl)phenyl)amino)-N-(methyl-d3)-6-((5-methyl-4-oxo-4,5,6,7-tetrahydropyrazolo[1,5-a]pyrazin-2-yl)amino)pyridazine-3-carboxamide]
111 nM	[2H]C([2H])([2H])NC(=O)c1nnc(NC(=O)C2CC2)cc1Nc1cccc(-c2ncc(N3CCOCC3=O)cn2)c1OC [Example 117]
81 nM	[2H]C([2H])([2H])NC(=O)c1nnc(Nc2cc3n(n2)CCN(C)C3=O)cc1Nc1cccc(-c2ncc(F)cn2)c1OC [Example 107, 4-((3-(5-Fluoropyrimidin-2-yl)-2-methoxyphenyl)amino)-N-(methyl-d3)-6-((5-methyl-4-oxo-4,5,6,7-tetrahydropyrazolo[1,5-a]pyrazin-2-yl)amino)pyridazine-3-carboxamide]
73 nM	[2H]C([2H])([2H])NC(=O)c1nnc(NC(=O)C2CC2)cc1Nc1cccc(-c2ncc(N3CCN(C)C3=O)cn2)c1OC [Example 116]
41 nM	[2H]C([2H])([2H])NC(=O)c1nnc(Nc2ccc(C(C)(C)O)cn2)cc1Nc1cc(F)cc(-c2ncccn2)c1OC [Example 104, 4-((5-fluoro-2-methoxy-3-(pyrimidin-2-yl)phenyl)amino)-6-((5-(2-hydroxypropan-2-yl)pyridin-2-yl)amino)-N-(methyl-d3)pyridazine-3-carboxamide]
36 nM	[2H]C([2H])([2H])NC(=O)c1nnc(NC(=O)C2CC2)cc1Nc1cccc(-c2ncc(N3CCOC3=O)cn2)c1OC [Example 113]
27 nM	[2H]C([2H])([2H])NC(=O)c1nnc(NC(=O)C2CC2)cc1Nc1cccc(-c2ncc(N3CCCC3=O)cn2)c1OC [Example 112]
